Test results from ChEMBL document CHEMBL1201862, “PubChem BioAssay data set” (2004).
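Growth conditions: 96-well plates. Treatment: test compound, 48 hours, 5 concentrations. Analysis: linear interpolation between bracketing concentrations; unreached endpoints set to highest concentration. At the GI50, growth is halved.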 Activity calls are given as the source filed them. Cut-off read from the data, not from the text of the source: active = GI50 up to about 1.1 µM and inactive = higher.

What was measured:
Test in all cases: NCI anticancer screen, dose series, 48 h
[1] = system: SK-MEL-28
[2] = system: T47D
[3] = system: M14
[4] = system: IGROV-1
[5] = system: UACC-62
[6] = system: DU-145
[7] = system: MDA-MB-231
[8] = system: OVCAR-5
[9] = system: HCT-116
[10] = system: SF-295
[11] = system: K562
[12] = system: U-251
[13] = system: SF-539
[14] = system: NCI-H522
[15] = system: HCT-15
[16] = system: HT-29
[17] = system: COLO 205
[18] = system: A549
[19] = system: MDA-MB-435
[20] = system: MDA-N

| Structure (SMILES) | GI50 [1] | GI50 [2] | GI50 [3] | GI50 [4] | GI50 [5] | GI50 [6] | GI50 [7] | GI50 [8] | GI50 [9] | GI50 [10] | GI50 [11] | GI50 [12] | GI50 [13] | GI50 [14] | GI50 [15] | GI50 [16] | GI50 [17] | GI50 [18] | GI50 [19] | GI50 [20] |
| --- | --- | --- | --- | --- | --- | --- | --- | --- | --- | --- | --- | --- | --- | --- | --- | --- | --- | --- | --- | --- |
| CCNC(=O)c1cc(/C=C/c2ccc([N+](=O)[O-])o2)nc2ccccc12 | 5.32 µM (inactive) | > 100 µM (inactive) | 2.34 µM (inactive) | 5.69 µM (inactive) | 32.1 µM (inactive) | 2.74 µM (inactive) | 14.9 µM (inactive) | > 100 µM (inactive) | 5.4 µM (inactive) | 41.7 µM (inactive) | 6.79 µM (inactive) | 71.9 µM (inactive) | 23.3 µM (inactive) | 4.21 µM (inactive) | 3.88 µM | 6.82 µM (inactive) | 3.8 µM (inactive) | 24.2 µM (inactive) | 2.19 µM (inactive) |  |
| COc1ccc(-c2nc3ccccc3s2)cc1OC | > 100 µM (inactive) |  | 94.4 µM (inactive) |  | 37.4 µM (inactive) |  | 19.7 µM (inactive) | > 100 µM (inactive) | 45.1 µM (inactive) | 25.8 µM (inactive) | > 100 µM (inactive) | 53.8 µM (inactive) | 54.6 µM (inactive) |  | 43.7 µM | 31.6 µM (inactive) | 21.9 µM (inactive) | 51.6 µM (inactive) | > 100 µM (inactive) | 64.4 µM (inactive) |
| CC(C)=CCC12Cc3ccc(O)cc3C(C(C)CN1)C2C (centres undefined) | 49.9 µM (inactive) | > 100 µM (inactive) | 21 µM (inactive) | > 100 µM (inactive) | > 100 µM (inactive) | > 100 µM (inactive) | > 100 µM (inactive) | 58.9 µM (inactive) | 59.7 µM (inactive) | 65.2 µM (inactive) | 34.4 µM (inactive) | 83.4 µM (inactive) | 72.1 µM (inactive) |  | 72.1 µM | 44.6 µM (inactive) | 36.9 µM (inactive) | > 100 µM (inactive) | 44.9 µM (inactive) |  |
| C[N+]1(C)CCCC(C#N)(c2ccccc2)CC1 (centres undefined) | > 100 µM (inactive) | > 100 µM (inactive) | > 100 µM (inactive) | > 100 µM (inactive) |  | > 100 µM (inactive) |  | > 100 µM (inactive) | > 100 µM (inactive) | > 100 µM (inactive) | > 100 µM (inactive) | > 100 µM (inactive) |  |  | > 100 µM | > 100 µM (inactive) | > 100 µM (inactive) | > 100 µM (inactive) |  | > 100 µM (inactive) |
| Nc1ccc(/N=N/c2ccccc2)cc1 | > 100 µM (inactive) |  | 44.4 µM (inactive) | 29.4 µM (inactive) | 27.4 µM (inactive) |  | 32.7 µM (inactive) | > 100 µM (inactive) | 54.6 µM (inactive) | 22.2 µM (inactive) | 35.8 µM (inactive) | 46.5 µM (inactive) | 35.2 µM (inactive) |  | 41.2 µM | 28.6 µM (inactive) | 46.1 µM (inactive) | 32.6 µM (inactive) | 56.1 µM (inactive) | 60.3 µM (inactive) |
| O=C/C(=C(/Cl)c1ccc(O)cc1)c1ccccc1 | 20.7 µM (inactive) |  | 27.8 µM (inactive) | 26 µM (inactive) | 13.2 µM (inactive) | 62.5 µM (inactive) |  | > 100 µM (inactive) | 18.1 µM (inactive) | 33.3 µM (inactive) | 45.3 µM (inactive) | 24 µM (inactive) | 28.6 µM (inactive) | 13.3 µM (inactive) | 16.1 µM | 27.1 µM (inactive) | 23 µM (inactive) | 32.1 µM (inactive) |  |  |
| S=C(Nc1cccc(Cl)c1)Nc1ccccn1 | > 100 µM (inactive) | > 100 µM (inactive) | > 100 µM (inactive) | > 100 µM (inactive) | > 100 µM (inactive) | > 100 µM (inactive) |  | > 100 µM (inactive) | > 100 µM (inactive) | > 100 µM (inactive) | > 100 µM (inactive) | > 100 µM (inactive) | > 100 µM (inactive) |  | > 100 µM | > 100 µM (inactive) | > 100 µM (inactive) | > 100 µM (inactive) | > 100 µM (inactive) |  |
| CC(C)(C)OC(=O)N(CCCCNC(=O)OCc1ccccc1)CCCNC(=O)OCc1ccccc1 | > 100 µM (inactive) | 5.19 µM (inactive) | 51.8 µM (inactive) | > 100 µM (inactive) | 87.9 µM (inactive) | > 100 µM (inactive) | 90.2 µM (inactive) | > 100 µM (inactive) | 41.8 µM (inactive) | 25.9 µM (inactive) | 23.3 µM (inactive) | 35.6 µM (inactive) | > 100 µM (inactive) | 4.06 µM (inactive) | > 100 µM | 18.5 µM (inactive) | 16.5 µM (inactive) | 9.71 µM (inactive) | 35.8 µM (inactive) |  |
| CC(C)C1OC(=O)/C=C/C=C/C=C/C=C/C=C/CC(O)C(C)C(O)CC(O)CC(O)CC(O)CC(O)CC(O)CC(O)/C=C/C1C (centres undefined) | > 100 µM (inactive) |  | > 100 µM (inactive) | > 100 µM (inactive) | > 100 µM (inactive) |  |  | > 100 µM (inactive) |  | > 100 µM (inactive) | > 100 µM (inactive) | > 100 µM (inactive) | > 100 µM (inactive) | > 100 µM (inactive) | > 100 µM | > 100 µM (inactive) |  | > 100 µM (inactive) | > 100 µM (inactive) |  |
| CC1=C(C(=O)NNS(=O)(=O)c2ccc(C)cc2)CC(C(=O)NNS(=O)(=O)c2ccc(C)cc2)=C(C)N1 | > 100 µM (inactive) |  | > 100 µM (inactive) | > 100 µM (inactive) | 14.3 µM (inactive) |  |  | 70.1 µM (inactive) | > 100 µM (inactive) | > 100 µM (inactive) | 56.9 µM (inactive) | > 100 µM (inactive) | > 100 µM (inactive) | 66.5 µM (inactive) | > 100 µM | > 100 µM (inactive) | > 100 µM (inactive) | > 100 µM (inactive) |  |  |
| Cc1cn(C2CC(OC(c3ccccc3)(c3ccccc3)c3ccccc3)C(COC(c3ccccc3)(c3ccccc3)c3ccccc3)O2)c(=O)[nH]c1=O (centres undefined) | 36.8 µM (inactive) |  | > 100 µM (inactive) | > 100 µM (inactive) | > 100 µM (inactive) | > 100 µM (inactive) | 37.7 µM (inactive) | 53.1 µM (inactive) | 17.1 µM (inactive) | > 100 µM (inactive) | 38.6 µM (inactive) |  | > 100 µM (inactive) |  | 59.2 µM | 61 µM (inactive) | > 100 µM (inactive) | 34.3 µM (inactive) | 26.2 µM (inactive) | 31.8 µM (inactive) |
| O=C1CSC(C(/N=N/c2ccccc2)=C2Nc3ccccc3N2)=N1 | 29.6 µM (inactive) |  | 70.3 µM (inactive) | > 100 µM (inactive) | 31.8 µM (inactive) |  |  | > 100 µM (inactive) | 32.4 µM (inactive) | 22.1 µM (inactive) | 33.5 µM (inactive) | 97.9 µM (inactive) | 26.4 µM (inactive) | 56.4 µM (inactive) | 54.6 µM | 83.4 µM (inactive) | > 100 µM (inactive) | 53.2 µM (inactive) |  |  |
| COc1ccccc1/C=C\c1cc(OC)c(OC)c(OC)c1 | 33.9 µM (inactive) |  | 5.85 µM (inactive) | 6.41 µM (inactive) | 5.9 µM (inactive) |  |  | 34 µM (inactive) | 9.23 µM (inactive) | 4.83 µM (inactive) | 4.06 µM (inactive) | 6.03 µM (inactive) | 6.4 µM (inactive) | 6.14 µM (inactive) | 4.2 µM | 3.97 µM (inactive) | 4.46 µM (inactive) | 6.08 µM (inactive) |  |  |
| O=c1c(Cc2ccccc2)c(O)cc2n1CCC2 | > 100 µM (inactive) |  | > 100 µM (inactive) | > 100 µM (inactive) | > 100 µM (inactive) |  |  | > 100 µM (inactive) | > 100 µM (inactive) | > 100 µM (inactive) | > 100 µM (inactive) | > 100 µM (inactive) | > 100 µM (inactive) | > 100 µM (inactive) | > 100 µM | > 100 µM (inactive) | > 100 µM (inactive) | > 100 µM (inactive) |  |  |
| CCOC(=O)C1=C(Nc2cccc3ccccc23)OC/C1=N\NC(=O)c1ccccc1O | 22.3 µM (inactive) |  | 21.9 µM (inactive) | 4.26 µM (inactive) | 6.53 µM (inactive) |  |  | 20.6 µM (inactive) | 19.1 µM (inactive) | 22.8 µM (inactive) | 10.1 µM (inactive) | 23.7 µM (inactive) | 10.6 µM (inactive) | 7.64 µM (inactive) | 14.7 µM | 29.7 µM (inactive) | 15.5 µM (inactive) | 16.4 µM (inactive) |  |  |
| N#Cc1c(O)cc(=O)n2c1[nH]c1ccccc12 |  |  | > 100 µM (inactive) | > 100 µM (inactive) | > 100 µM (inactive) | > 100 µM (inactive) | > 100 µM (inactive) | > 100 µM (inactive) | > 100 µM (inactive) | 64 µM (inactive) | > 100 µM (inactive) | > 100 µM (inactive) | > 100 µM (inactive) | > 100 µM (inactive) | > 100 µM | > 100 µM (inactive) | > 100 µM (inactive) | > 100 µM (inactive) | > 100 µM (inactive) | > 100 µM (inactive) |
| CC1(C)CCCCCC(C)(CCCO)C1=O (centres undefined) | > 100 µM (inactive) | > 100 µM (inactive) | > 100 µM (inactive) | > 100 µM (inactive) | > 100 µM (inactive) | > 100 µM (inactive) | > 100 µM (inactive) | > 100 µM (inactive) | > 100 µM (inactive) | > 100 µM (inactive) | > 100 µM (inactive) | > 100 µM (inactive) |  | > 100 µM (inactive) | > 100 µM | > 100 µM (inactive) | > 100 µM (inactive) | > 100 µM (inactive) | > 100 µM (inactive) |  |
